From ChEMBL document CHEMBL5625197, “The mystery of titan hunter: Rationalized striking of the MAPK pathway via Newly synthesized 6-Indolylpyridone-3-Carbonitrile derivatives” (Eur J Med Chem, 2023)

Legend:
SR [1] = assay: cells; type: functional; conditions: Homo sapiens, 96 h, time 4 day, read-out: GI
Description: Growth inhibition of human SR cells at 10 uM incubated for 4 days by MTT assay relative to control

RXF 393 [2] = assay: cells; type: functional; conditions: Homo sapiens, RXF 393, 96 h, time 4 day, read-out: GI
Description: Growth inhibition of human RXF 393 cells at 10 uM incubated for 4 days by MTT assay relative to control

HOP-92 [3] = assay: cells; type: functional; conditions: Homo sapiens, HOP-92, 96 h, time 4 day, read-out: GI
Description: Growth inhibition of human HOP-92 cells at 10 uM incubated for 4 days by MTT assay relative to control

HCT-116 [4] = assay: cells; type: functional; conditions: Homo sapiens, HCT-116, 96 h, time 4 day, read-out: GI
Description: Growth inhibition of human HCT-116 cells at 10 uM incubated for 4 days by MTT assay relative to control

[5] = Selectivity index, ratio of GI50 for cytotoxicity against human PCS-800-011 cells to GI50 for cytotoxicity against human SR cells; type: toxicity, cell-based; conditions: PCS-800-011 cells versus SR cells, read-out: RatioGI50
SR [6] = assay: Cytotoxicity against human SR cells assessed as cell growth inhibition incubated for 4 days by MTT assay; type: functional; conditions: 96 h, time 4 day
[7] = Cytotoxicity against human PCS-800-011 cells assessed as cell growth inhibition incubated for 4 days by MTT assay
[8] = Cytotoxicity against human HEK293 cells assessed as cell growth inhibition incubated for 4 days by MTT assay
[9] = Cytotoxicity against human FHC cells assessed as cell growth inhibition incubated for 4 days by MTT assay
[10] = Cytotoxicity against human PCS-800-011 cells assessed as fold change in cell growth inhibition incubated for 4 days by MTT assay; type: toxicity, cell-based; conditions: pcs-800-011, 96 h, time 4 day
[11] = Selectivity index, ratio of GI50 for cytotoxicity against human FHC cells to GI50 for cytotoxicity against human HCT-116 cells; type: toxicity, cell-based; conditions: FHC cells versus HCT-116 cells, read-out: RatioGI50
[12] = Selectivity index, ratio of GI50 for cytotoxicity against human HEK293 cells to GI50 for cytotoxicity against human RXF 393 cells
[13] = Selectivity index, ratio of GI50 for cytotoxicity against human MRC5 cells to GI50 for cytotoxicity against human HOP-92 cells
HCT-116 [14] = assay: Cytotoxicity against human HCT-116 cells assessed as cell growth inhibition incubated for 4 days by MTT assay; type: functional; conditions: HCT-116, 96 h, time 4 day
HOP-92 [15] = assay: Cytotoxicity against human HOP-92 cells assessed as cell growth inhibition incubated for 4 days by MTT assay; type: functional; conditions: HOP-92, 96 h, time 4 day
[16] = Cytotoxicity against human MRC5 cells assessed as cell growth inhibition incubated for 4 days by MTT assay
RXF 393 [17] = assay: Cytotoxicity against human RXF 393 cells assessed as cell growth inhibition incubated for 4 days by MTT assay; type: functional; conditions: RXF 393, 96 h, time 4 day
[18] = biological target: Hepatocyte growth factor receptor (Homo sapiens, UniProt P08581); assay: Inhibition of c-Met (unknown origin)
HOP-92 [19] = assay: Induction of apoptosis in human HOP-92 cells assessed as fold change in p53 gene expression by RT-PCR analysis; type: functional
HOP-92 [20] = assay: Induction of apoptosis in human HOP-92 cells assessed as necrosis rate by Annexin V/ PI staining based flow cytometry (reference value: 1.6 %); type: functional
HOP-92 [21] = assay: Induction of cell cycle arrest in human HOP-92 cells assessed as accumulation of cells at S phase (reference value: 29.57 %); type: functional
HOP-92 [22] = assay: Inhibition of colony formation in human HOP-92 cells incubated for 24 hrs by crystal violet staining based assay relative to control; type: functional
HOP-92 [23] = assay: Inhibition of cell migration in human HOP-92 cells assessed as fold decrease in cell count incubated for 15 to 20 mins by crystal violet staining based trans-well assay; type: functional; conditions: time 15-20 min
HOP-92 [24] = assay: Induction of apoptosis in human HOP-92 cells assessed as fold change in Bax gene expression by RT-PCR analysis; type: functional
HOP-92 [25] = assay: Induction of apoptosis in human HOP-92 cells assessed as fold change in caspase-8 gene expression by RT-PCR analysis; type: functional
HOP-92 [26] = assay: Induction of apoptosis in human HOP-92 cells assessed as total apoptotic rate by Annexin V/ PI staining based flow cytometry (reference value: 2.28 %); type: functional
HOP-92 [27] = assay: Induction of apoptosis in human HOP-92 cells assessed as fold change in caspase-3 gene expression by RT-PCR analysis; type: functional
HOP-92 [28] = assay: Inhibition of cell invasion in human HOP-92 cells incubated for 15 to 20 mins by crystal violet staining based trans-well assay relative to control; type: functional; conditions: time 15-20 min
HOP-92 [29] = assay: Induction of apoptosis in human HOP-92 cells assessed as fold change in ratio of Bax/Bcl-2 gene expression by RT-PCR analysis; type: functional
HOP-92 [30] = assay: Induction of apoptosis in human HOP-92 cells assessed as fold change in Bcl-2 gene expression by RT-PCR analysis; type: functional
HOP-92 [31] = assay: Induction of cell cycle arrest in human HOP-92 cells assessed as cell debris (reference value: 2.18 %); type: functional
HOP-92 [32] = assay: Induction of apoptosis in human HOP-92 cells assessed as late apoptotic rate by Annexin V/ PI staining based flow cytometry (reference value: 0.26 %); type: functional
HOP-92 [33] = assay: Induction of apoptosis in human HOP-92 cells assessed as fold change in TNFR1 gene expression by RT-PCR analysis; type: functional
HOP-92 [34] = assay: Induction of apoptosis in human HOP-92 cells assessed as fold change in caspase-9 gene expression by RT-PCR analysis; type: functional
HOP-92 [35] = assay: Induction of apoptosis in human HOP-92 cells assessed as early apoptotic rate by Annexin V/ PI staining based flow cytometry (reference value: 0.42 %); type: functional
HOP-92 [36] = assay: Inhibition of cell migration in human HOP-92 cells incubated for 15 to 20 mins by crystal violet staining based trans-well assay relative to control; type: functional; conditions: time 15-20 min
HOP-92 [37] = assay: Induction of cell cycle arrest in human HOP-92 cells assessed as accumulation of cells at G0/G1 phase (reference value: 54.83 %); type: functional
HOP-92 [38] = assay: Induction of apoptosis in human HOP-92 cells assessed as fold change in PARP1 gene expression by RT-PCR analysis; type: functional
HOP-92 [39] = assay: Induction of cell cycle arrest in human HOP-92 cells assessed as cell aggregation (reference value: 1.77 %); type: functional
HOP-92 [40] = assay: Induction of cell cycle arrest in human HOP-92 cells assessed as accumulation of cells at G2/M phase (reference value: 15.6 %); type: functional

N#Cc1c(-c2ccc(F)c(F)c2)cc(-c2c[nH]c3ccccc23)[nH]c1=O showed an inhibition of growth at 10 µM (SR [1]) of 55.9%, an inhibition of growth at 10 µM (RXF 393 [2]) of 65.7% and an inhibition of growth at 10 µM (HOP-92 [3]) of 53.1%. The inhibition of growth at 10 µM (HCT-116 [4]) was 51%.

In the case of N#Cc1c(-c2ccc(C(F)(F)F)cc2)cc(-c2c[nH]c3ccccc23)[nH]c1=O, the inhibition of growth at 10 µM (SR [1]) is reported as 48.5%, the inhibition of growth at 10 µM (RXF 393 [2]) is reported as 71.6% and the inhibition of growth at 10 µM (HOP-92 [3]) is reported as 56.7%. The inhibition of growth at 10 µM (HCT-116 [4]) was 67.5%.

N#Cc1c(-c2ccc(O)c(O)c2)cc(-c2c[nH]c3ccccc23)[nH]c1=O showed an inhibition of growth at 10 µM (SR [1]) of 69.8%, an inhibition of growth at 10 µM (RXF 393 [2]) of 11% and an inhibition of growth at 10 µM (HOP-92 [3]) of 31.2%. For the same compound, the inhibition of growth at 10 µM (HCT-116 [4]) was 9.54%.

With N#Cc1c(-c2ccc(Cl)c(Cl)c2)cc(-c2c[nH]c3ccccc23)[nH]c1=O the selectivity ratio [5] was 8.02, the GI50 (SR [6]) was 9.17 µM and the GI50 at 96 h [7] was 73.6 µM. It also gave a GI50 at 96 h [8] of 42.6 µM, a GI50 at 96 h [9] of 41 µM and an inhibition of growth at 10 µM (SR [1]) of 71.8%. The inhibition of growth at 10 µM (RXF 393 [2]) was 75.8%, the “fold change (FC)” value [10] was 3.5 and the selectivity ratio [11] was 3.86. The inhibition of growth at 10 µM (HOP-92 [3]) was 73.3%, the inhibition of growth at 10 µM (HCT-116 [4]) was 76.5% and the RatioGI50 [12] was 2.56. It also gave a RatioGI50 [13] of 16.3, a GI50 (HCT-116 [14]) of 10.6 µM and a GI50 (HOP-92 [15]) of 3.44 µM. For the same compound, the GI50 at 96 h [16] was 56.1 µM and the GI50 (RXF 393 [17]) was 16.6 µM.

Work on N#Cc1c(-c2ccccc2Cl)cc(-c2c[nH]c3ccccc23)[nH]c1=O yielded an inhibition of growth at 10 µM (SR [1]) of 90%, an inhibition of growth at 10 µM (RXF 393 [2]) of 51.3% and an inhibition of growth at 10 µM (HOP-92 [3]) of 55.1%. It also gave an inhibition of growth at 10 µM (HCT-116 [4]) of 47.6%.

In the case of CCOc1ccn(-c2ccc(F)cc2)c(=O)c1C(=O)Nc1ccc(Oc2ccnc(N)c2Cl)c(F)c1 [BMS-777607], the IC50 [18] is reported as 128 nM.

For COc1cccc2c1C(=O)c1c(O)c3c(c(O)c1C2=O)C[C@@](O)(C(=O)CO)C[C@@H]3O[C@H]1C[C@H](N)[C@H](O)[C@H](C)O1 [DOXORUBICIN], the “fold change (FC)” value (HOP-92 [19]) was 6.97, the Activity (HOP-92 [20]) was 9.28% and the Activity (HOP-92 [21]) was 21.73%. For the same compound, the “inhibition (INH)” value (HOP-92 [22]) was 44.9%, the “fold change (FC)” value (HOP-92 [23]) was 3.8 and the “fold change (FC)” value (HOP-92 [24]) was 6.62. The “fold change (FC)” value (HOP-92 [25]) was 4.36, the Activity (HOP-92 [26]) was 52.49% and the “fold change (FC)” value (HOP-92 [27]) was 14.3. For the same compound, the “inhibition (INH)” value (HOP-92 [28]) was 41.96%, the “fold change (FC)” value (HOP-92 [29]) was 21.4 and the “fold change (FC)” value (HOP-92 [30]) was 0.31. The Activity (HOP-92 [31]) was 2.44%, the Activity (HOP-92 [32]) was 26.57% and the “fold change (FC)” value (HOP-92 [33]) was 0.24. For the same compound, the “fold change (FC)” value (HOP-92 [34]) was 12.4, the Activity (HOP-92 [35]) was 16.64% and the “inhibition (INH)” value (HOP-92 [36]) was 73.54%. The Activity (HOP-92 [37]) was 48.53%, the “fold change (FC)” value (HOP-92 [38]) was 0.23 and the Activity (HOP-92 [39]) was 2.15%. It also gave an Activity (HOP-92 [40]) of 29.74%.

CN[C@@H]1C[C@H]2O[C@@](C)([C@@H]1OC)n1c3ccccc3c3c4c(c5c6ccccc6n2c5c31)C(=O)NC4 [STAUROSPORINE] gave a GI50 (RXF 393 [17]) of 0.95 µM.
